The test system of assay [1] is endogenous target monocytes in human PBMC. The experiment in a line: PBMC ex vivo monocyte depletion flow cytometry assay (Example 200). It counts as cell-based. Particulars: with anti-cotinine antibody (SEQ ID NO: 11/12), 18-24 hours, EC50 in molar, read-out: Ex Vivo Depletion Assay pEC50 (converted). The method, boiled down: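 Monocyte depletion is reported as pEC50, averaged or given individually across runs, and read by flow cytometry staining CD45, CD14 and CD4 with a viability dye. Compounds, diluted four-fold over 11 points from 1 mM DMSO stocks, were combined with 30 μg/mL Fc-enhanced anti-cotinine antibody and human PBMC, then incubated 18-24 h at 37° C.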
For orientation: Flow cytometry measures light scatter and fluorescence of single cells or particles in a stream.

Assay [2] has as its system CCR2 expressing cells (CD11b+Ly6c+Hi) in peripheral blood. The assay is described as follows: In vivo depletion assay, flow cytometry of peripheral blood (Example 201). Particulars: hCCR2 knock-in mice, IV 0.1 mpk compound + 10 mpk anti-cotinine antibody (SEQ ID NO: 13/14), peripheral blood at 48 hr. Set-up: species or system human CCR2 knock-in mice (C57 background). On the procedure: Stock solution preparation. Stock solutions of compounds of Formula (I) were prepared at 20 mg/mL and 100 mg/mL in […] for PK/PD and dose tolerability studies respectively. Stock solutions were stored at […] until further usage. on the day of experiment, the stock Solution of the compound of Formula (I) was removed from storage at […] and thawed at room temperature. Anti-cotinine antibody having a heavy chain sequence of SEC ID NO: 13 and a light chain sequence of SEQ ID NO: 14 (rabbit variable region sequence with mouse IgG2a Fc domain), if required was removed from storage at −80° C. and thawed at room temperature. Antibody vials were immediately transferred into wet ice after thawing. Compounds of Formula (I) were further diluted in DMSO as per experimental requirements.
The formulation composition was Saline: DMSI: PBS.
Saline was added based on the quantity required and then stock solution of the compound of Formula (I) prepared in DMSO, followed by addition of antibody in PBS. Formulations were incubated at room temperature for 30 minutes before administration to the mouse. DMSO was used at 1 to % (v/v) in the final formulation.
After bleeding, each mouse was sacrificed by cervical dislocation. […] Flow Cytometry Analysis:
CCR2 depletion in peripheral blood was determined by flow cytometry. Briefly, peripheral blood was collected from all animals at the end of study termination and processed. Blood samples were lysed using 1×RBC Lysis buffer and the resulting cell pellet was washed twice in FACS buffer (HBSS containing 5% FBS). Cells were subjected to Fc blocking using mouse Fc block from Biolegend (Trustain, anti-mouse CD16/32, Cat: 101319) to block non-specific binding followed by surface staining for immune markers (CD45, CD3, CD11 b, Ly6C, human CCR2). Surface staining was done for 30 minutes in ice and cells were washed twice to remove unbound antibodies. Cells were stained with 7AAD to determine viability and acquired on BD FACSVerse flow cytometer. Appropriate FMO controls and single-color controls were included in the experiment for gating and compensation respectively.
Percent depletion of CD11 b+Ly6c+Hi cells and CCR2 expression for the different treatment groups was determined.

As for `CC(C)N(C)[C@@H]1CC[C@H](N2CC[C@H](Nc3ncnc4ccc(C(F)(F)F)cc34)C2=O)[C@H](NC(=O)CCc2ccc(C3CCN(C(=O)CCCCCNC(=O)[C@H]4CC(=O)N(C)[C@@H]4c4cccnc4)CC3)cc2)C1` [Example 86, (2S,3S)-N-(6-(4-(4-(3-(((1R,2S,5R)-5-(Isopropyl(methyl)amino)-2-((S)-2-oxo-3-((6-(trifluoromethyl)quinazolin-4-yl)amino)pyrrolidin-1-yl)cyclohexyl)amino)-3-oxopropyl)phenyl)piperidin-1-yl)-6-oxohexyl)-1-methyl-5-oxo-2-(pyridin-3-yl)pyrrolidine-3-carboxamide], the EC50 in assay [1] is 0.158 nM. For the same molecule, the “% Depletion of CCR2 expressing cells” value in assay [2] was found to be 25.67%.
`CC(C)N(C)[C@@H]1CC[C@H](N2CC[C@H](Nc3ncnc4ccc(C(F)(F)F)cc34)C2=O)[C@H](NC(=O)CNC(=O)[C@H]2CC[C@@H](NC(=O)COCCOCCNC(=O)[C@H]3CC(=O)N(C)[C@@H]3c3cccnc3)CC2)C1` [Example 136, (2S,3S)-N-(2-(2-(2-(((1S,4R)-4-((2-(((1R,2S,5R)-5-(Isopropyl(methyl)amino)-2-((S)-2-oxo-3-((6-(trifluoromethyl)quinazolin-4-yl)amino)pyrrolidin-1-yl)cyclohexyl)amino)-2-oxoethyl)carbamoyl)cyclohexyl)amino)-2-oxoethoxy)ethoxy)ethyl)-1-methyl-5-oxo-2-(pyridin-3-yl)pyrrolidine-3-carboxamide]: the EC50 in assay [1] was 10 nM. In assay [2], the “% Depletion of CCR2 expressing cells” value is reported as 88%.
`CC(C)N(C)[C@@H]1CC[C@H](N2CC[C@H](Nc3ncnc4ccc(C(F)(F)F)cc34)C2=O)[C@H](NC(=O)[C@H]2CC[C@@H](NC(=O)C3CCC4(CC3)CCN(CCNC(=O)[C@H]3CC(=O)N(C)[C@@H]3c3cccnc3)CC4)CC2)C1` [Example 170, N-((1S,4s)-4-(((1R,2S,5R)-5-(Isopropyl(methyl)amino)-2-((S)-2-oxo-3-((6-(trifluoromethyl)quinazolin-4-yl)amino)pyrrolidin-1-yl)cyclohexyl)carbamoyl)cyclohexyl)-3-(2-((2S,3S)-1-methyl-5-oxo-2-(pyridin-3-yl)pyrrolidine-3-carboxamido)ethyl)-3-azaspiro[5.5]undecane-9-carboxamide]: in assay [1], the EC50 was 0.398 nM. Also, the “% Depletion of CCR2 expressing cells” value in assay [2] is on record as 94.75%.
On to `CC(C)N(C)[C@@H]1CC[C@H](N2CC[C@H](Nc3ncnc4ccc(C(F)(F)F)cc34)C2=O)[C@H](NC(=O)[C@H]2CC[C@@H](C(=O)NCCCN3CCN(CCCNC(=O)[C@H]4CC(=O)N(C)[C@@H]4c4cccnc4)CC3)CC2)C1` [Example 150, (1 s,4S)-N^1-((1R,2S,5R)-5-(Isopropyl(methyl)amino)-2-((S)-2-oxo-3-((6-(trifluoromethyl)quinazolin-4-yl)amino)pyrrolidin-1-yl)cyclohexyl)-N^4-(3-(4-(3-((2S,3S)-1-methyl-5-oxo-2-(pyridin-3-yl)pyrrolidine-3-carboxamido)propyl)piperazin-1-yl)propyl)cyclohexane-1,4-dicarboxamide], for which the EC50 in assay [1] was 1 nM. In addition, the “% Depletion of CCR2 expressing cells” value in assay [2] amounted to 85.52%.
As to `CN1C(=O)C[C@H](C(=O)NCCC(=O)NCCOCCOCCC(=O)N[C@H]2CC[C@@H](C(=O)N[C@@H]3C[C@H](NC(C)(C)C)CC[C@@H]3N3CC[C@H](Nc4ncnc5ccc(C(F)(F)F)cc45)C3=O)CC2)[C@H]1c1cccnc1` [Example 51, (2S,3S)-N-(3-((2-(2-(3-(((1S,4s)-4-(((1R,2S,5R)-5-(tert-Butylamino)-2-((S)-2-oxo-3-((6-(trifluoromethyl)quinazolin-4-yl)amino)pyrrolidin-1-yl)cyclohexyl)carbamoyl)cyclohexyl)amino)-3-oxopropoxy)ethoxy)ethyl)amino)-3-oxopropyl)-1-methyl-5-oxo-2-(pyridin-3-yl)pyrrolidine-3-carboxamide], in assay [1], the EC50 is 0.631 nM. The “% Depletion of CCR2 expressing cells” value in assay [2] worked out at 97.32%.
In the case of `CC(C)N(C)[C@@H]1CC[C@H](N2CC[C@H](Nc3ncnc4ccc(C(F)(F)F)cc34)C2=O)[C@H](NC(=O)C2CCN(C3CCN(CCOCCOCCNC(=O)[C@H]4CC(=O)N(C)[C@@H]4c4cccnc4)CC3)CC2)C1` [Example 90, N-((1R,2S,5R)-5-(Isopropyl(methyl)amino)-2-((S)-2-oxo-3-((6-(trifluoromethyl)quinazolin-4-yl)amino)pyrrolidin-1-yl)cyclohexyl)-1′-(2-(2-(2-((2S,3S)-1-methyl-5-oxo-2-(pyridin-3-yl)pyrrolidine-3-carboxamido)ethoxy)ethoxy)ethyl)-[1,4′-bipiperidine]-4-carboxamide], in assay [1], the EC50 was 1.58 nM. Further, the “% Depletion of CCR2 expressing cells” value in assay [2] is recorded as 87.57%.
Taken in the same sequence, the figures for `CC(C)N(C)[C@@H]1CC[C@H](N2CC[C@H](Nc3ncnc4ccc(C(F)(F)F)cc34)C2=O)[C@H](NC(=O)C2CCN(C3CCN(C(=O)CCOCCOCCNC(=O)[C@H]4CC(=O)N(C)[C@@H]4c4cccnc4)CC3)CC2)C1` [Example 172, N-((1R,2S,5R)-5-(Isopropyl(methyl)amino)-2-((S)-2-oxo-3-((6-(trifluoromethyl)quinazolin-4-yl)amino)pyrrolidin-1-yl)cyclohexyl)-1′-(3-(2-(2-((2S,3S)-1-methyl-5-oxo-2-(pyridin-3-yl)pyrrolidine-3-carboxamido)ethoxy)ethoxy)propanoyl)-[1,4′-bipiperidine]-4-carboxamide] were 2 nM and 80%.
Regarding `CN1C(=O)C[C@H](C(=O)NCCOCC(=O)NCCOCC(=O)N[C@H]2CC[C@@H](C(=O)N[C@@H]3C[C@H](NC(C)(C)C)CC[C@@H]3N3CC[C@H](Nc4ncnc5ccc(C(F)(F)F)cc45)C3=O)CC2)[C@H]1c1cccnc1` [Example 100, (2S,3S)-N-(2-(2-((2-(2-(((1S,4s)-4-(((1R,2S,5R)-5-(tert-Butylamino)-2-((S)-2-oxo-3-((6-(trifluoromethyl)quinazolin-4-yl)amino)pyrrolidin-1-yl)cyclohexyl)carbamoyl)cyclohexyl)amino)-2-oxoethoxy)ethyl)amino)-2-oxoethoxy)ethyl)-1-methyl-5-oxo-2-(pyridin-3-yl)pyrrolidine-3-carboxamide], the EC50 in assay [1] was 1.26 nM. Moreover, in assay [2], the “% Depletion of CCR2 expressing cells” value is on record as 74%.

The values above are taken from US12521393B2, “Cytotoxicity targeting chimeras for CCR2-expressing cells” (GLAXOSMITHKLINE INTELLECTUAL PROPERTY DEVELOPMENT LIMITED, priority 2021, dated 2026).
